“Also recorded” adds a separate entry of the source.
Experiments:
BNIP3 [1] = assay: western blot of BNIP3 in neonatal cardiac myocytes treated with lactacystin (FIG. 12); type: cell-based; conditions: hypoxic or normoxic 24 hours
Description: Neonatal cardiac myocytes were incubated in hypoxic (+) or normoxic (−) conditions for 24 hours. Cells were treated with lactacystin at the indicated concentrations and lysates harvested for western blotting with anti-BNIP3 antibody. BNIP3 band is indicated with an arrow.

[2] = system: primary hippocampal neurons; assay: excitotoxic cell death of primary hippocampal neurons, trypan blue exclusion; type: cell-based, rat
Description: (§1) Primary hippocampal neurons were prepared from 18-day-old embryonic Sprague-Dawley rats as described previously by Haughey, N. J. et al. (2001). Briefly, hippocampal tissue was dissociated by gentle tituration in a calcium-free Hank's balanced salt solution and was centrifuged at 1000×g. Cells were resuspended in Dulbecco's modified Eagle's medium (DMEM)/F12 nutrient mixture containing 10% heat-inactivated fetal bovine serum and 1% antibiotic solution (104 IU of penicillin G/ml, 10 mg streptomycin/ml and 25 μg amphotericin B/ml) in 0.9% NaCl (Sigma, St Louis, Mo., USA). Hippocampal neurons were plated at a density of 2×10^5 cells/ml on 12-mm diameter poly d-lysine-coated glass coverslips. Three hours after plating, the media was replaced with serum-free Neurobasal media containing 1% B-27 supplement (Gibco, Rockville, Md., USA).
To determine the extent to which NMDA-type glutamate receptors were involved in BNIP3 expression and excitotoxic cell death, the inventors used the agonist NMDA (100 μM) in the absence or presence of the NMDA receptor antagonist MK-801 (10 μM). To determine the extent to which caspase activation contributes to BNIP3-mediated cell death, hippocampal cells were incubated in the absence or presence of the broad spectrum cell permeable caspase inhibitors z-VAD-FMK (50 μM) and BOC-D-FMK (50 μM); these inhibitors were applied 30 minutes prior to application of glutamate or NMDA. […]
In vitro cell death was estimated using trypan blue exclusion. Cells were incubated in 0.4% trypan blue solution for 30 minutes and then counted on a bright-field microscope. Nonviable cells were distinguished by their dark blue staining. To examine nuclear morphology, nuclear DNA was stained with Hoescht 33342. DNA fragmentation was detected by TUNEL using an in situ cell death detection kit with fluorescein. Statistical analyses were by ANOVA with Tukey's post-test.

BNIP3 [3] = assay: BNIP3 immunohistochemistry in primary hippocampal neurons after glutamate; type: cell-based, rat; conditions: 100 μM glutamate
Description: as §1
For immunohistochemistry and in situ hybridization, rats were perfused transcardially with 0.9% saline and then 4% paraformaldehyde. Brains were carefully removed and post-fixed overnight in PBS containing 4% paraformaldehyde. After rinsing in PBS, the brains were placed in PBS containing 0.5 M sucrose (pH 7.3) at 4° C. until buoyancy was lost. […] Brain sections were hybridized with the probe, incubated with an alkaline phosphatase-conjugated anti-digoxigenin antibody, and labeled cells were detected with BCIP/NBT.

BNIP3 [4] = assay: intrastriatal injection in rats, BNIP3 immunohistochemistry and in situ hybridization; type: in vivo; conditions: rat
Description: Male Sprague-Dawley rats, with body weights ranging between 200 to 250 g, were obtained from the University of Manitoba Central Animal Care breeding facility. All procedures followed Canadian Council on Animal Care guidelines and were approved by the Animal Care Committee at the University of Manitoba. Animals were anesthetized with 74 mg/kg sodium pentobarbital (i.p.) and placed in a stereotaxic surgery frame. Unilateral intrastriatal injections were performed using the following coordinates (in mm); AP […], ML 3.0 and DV 4.5 (Paxinos, G. et al. (1986)). Drugs were administered over a 5 minute period in a volume of 1 μl using a 10 μl syringe fitted with a 30-gauge needle. Following injection, the needle was left in place for 5 minutes before being slowly withdrawn to allow diffusion of the drug away from the injection site. Kainic acid, dissolved in 50 mM Tris-HCl with the pH adjusted to 7.4 with NaOH, was administered at a dose of 2.5 nmol. Control rats received unilateral injections of 1 μl 50 mM Tris-HCl, pH 7.4. […]
For immunohistochemistry and in situ hybridization, rats were perfused transcardially with 0.9% saline and then 4% paraformaldehyde. […] Brain sections were hybridized with the probe, incubated with an alkaline phosphatase-conjugated anti-digoxigenin antibody, and labeled cells were detected with BCIP/NBT.

[5] = system: mitochondrial permeability transition pore; assay: mitochondrial permeability transition in ventricular myocytes, calcein-AM with cobalt chloride; type: cell-based, rat; conditions: Bongkrekic acid 50 μmol/L
Source text: To monitor mitochondrial permeability transition (PT), ventricular myocytes were loaded with 5 μmol/L calcein-acetoxymethylester (calcein-AM, Molecular Probes) in the presence of 2 to 5 mmol/L cobalt chloride as previously reported (Gurevich et al., 2001; Petronilli et al., 1998).

ventricular myocytes = assay: cell viability of ventricular myocytes, calcein acetoxymethyl ester / ethidium homodimer-1; type: cell-based; conditions: Bongkrekic acid 50 μmol/L
Description: Ventricular myocytes were isolated from 1- to 2-day-old Sprague-Dawley rats (University of Manitoba, Winnipeg, Canada) and submitted to primary culture as reported (Kirshenbaum and Schneider, 1995). Myocytes were subjected to hypoxia for 24 hours in an air-tight chamber continually gassed with 95% N2-5% CO2, as previously reported (Moissac et al., 2000; Long et al., 1997; Tanaka et al., 1994). Adult rat hearts (n=3) were excised from adult rats (250 to 300 g) and subjected to global hypoxia for 1 hour on a modified Langendorff perfusion system with buffer continually gassed with 95% N2-5% CO2, as previously reported (Kirshenbaum, 1993). Heart failure was induced in rats by surgical ligation of the left anterior descending coronary artery, as previously reported (Dixon et al., 1992). Non-failing sham control hearts and those with heart failure were excised from animals 8 weeks after myocardial infarction. Hearts (n=3) were dissected to remove the infarcted scar tissue, and the left ventricular free wall was homogenized and analyzed by Western blot for BNIP3 expression. Animals were handled according to guidelines established by the University of Manitoba and Canadian Council on Animal Care.
The cDNAs for BNIP3 full-length (BNIP3) and carboxyl terminal transmembrane domain deletion mutant (BNIP3ΔTM) have been described previously (Vande et al., 2000). Recombinant adenoviruses encoding the full-length BNIP3 or transmembrane deletion mutant are designated AdBNIP3 or AdBNIP3ΔTM, respectively, and generated as reported previously (Kirshenbaum et al., 1993).
Cell viability was determined using the vital dyes 2 μmol/L calcein acetoxymethyl ester (green) to determine the number of living cells and 2 μmol/L ethidium homodimer-1 (red) (Molecular Probes) to identify the number of dead cells (Kirshenbaum and Schneider, 1995). The number of green cells versus red cells was used to determine changes in cell viability (Moissac et al., 2000). Cells were analyzed from at least n=3 independent myocyte isolations counting ≧200 cells for each condition tested. Data are expressed as mean±SE percent reduction from control.

PT pore = assay: mitochondrial Dcm (DiOC6), ROS production (HE) and PI staining by flow cytometry in BNIP3-transfected 293T cells; type: cell-based
Description: Changes in mitochondrial function were determined by incubating 10 6 293T cells, transiently transfected via the CaP04 method, with either 1 mM JC-1, 40 nM DiOC6, or 2 mM dihydroethidium (HE) (all from Molecular Probes, Inc.) for 30 minutes at 37° C. in Hanks' balanced salt solution (Gibco-BRL). Cells were scored using a FACScalibur flow cytometer (Becton-Dickinson, San Jose, Calif.), and data were analyzed on Celiquest software, version 3.1 (Becton-Dickinson). Controls were performed in the presence or absence of […] mClCCP (Sigma) or an excess of 30% H2 02. For inhibition experiments, cyclosporin A (Sigma) or bongkrekic acid (a gift from J. A. Duine, Delft University, Delft, The Netherlands) was added 2 hours prior to transfection. All cells were harvested 8 hours after transfection and stained with 40 nM DiOC6, 2 mM HE, or 1 mg of propidium iodide (PI) (Sigma) per ml. In all cases, samples were gated to exclude cellular debris.

[6] = drug 2 hours prior to transfection, harvested 8 hours posttransfection, 25 and 50 mM cyclosporin A, 100 mM bongkrekic acid

CC(=O)N[C@@H](CSC(=O)[C@]1([C@@H](O)C(C)C)NC(=O)[C@H](C)[C@@H]1O)C(=O)O [Lactacystin]
degradation of the BNIP3 protein (western blot) (BNIP3 [1]): slows the degradation

N[C@@H](CCC(=O)O)C(=O)O [glutamate]
hippocampal neurons killed ([2]; 10 μM glutamate for 6 hours, then Neurobasal media 24 hours): 40% | cells stained positively for trypan blue ([2]; 100 μM glutamate for 6 hours, then Neurobasal media 24 hours): 70% | neuronal cell death (trypan blue exclusion) ([2]; 6 hours after application, p<0.01): significantly increased | cells stained positive for BNIP3 (BNIP3 [3]): more than 50%

C=C(C)[C@H]1CN[C@H](C(=O)O)[C@H]1CC(=O)O [kainic acid]
BNIP3 expression in striatum (immunohistochemistry) (BNIP3 [4]; intrastriatal 1 μl, 2.5 nmol kainic acid, 5 nmol CNQX alone or mixed with kainic acid, 48 hours): observed only in those rats that received kainic acid alone | levels of BNIP3 mRNA (in situ hybridization) (BNIP3 [4]; intrastriatal kainic acid): increased

CO[C@H](C/C=C\C=C\CC/C=C/C[C@H](C)/C=C/C(=C\C(=O)O)CC(=O)O)/C(C)=C\C=C(/C)C(=O)O [bongkrekic acid]
BNIP3-induced loss of mitochondrial calcein staining [5]: suppressed | BNIP3-induced mitochondrial defects and cell death (ventricular myocytes): prevented | maximum suppression of BNIP3 effects, of that in control cells (PT pore; Dcm suppression, ROS generation and cell death): about 50% | cell death (PI staining) in BNIP3 transfectants (PT pore; drug 2 hours prior to transfection, harvested 8 hours posttransfection, 50 mM cyclosporin A, 100 mM bongkrekic acid): dose-dependent reversal; also recorded: significantly suppressed | Dcm suppression (DiOC6) in BNIP3 transfectants (PT pore; [6]): dose-dependent reversal; also recorded: significantly inhibited | ROS generation (HE fluorescence) in BNIP3 transfectants (PT pore; [6]): dose-dependent reversal; also recorded: inhibited
